Test results as given in a melting point compilation (Tetko et al.).

melting point [°C]	Compound
179 to 181	COc1cc(C(=O)O)ccc1OCc1cccnc1
155 to 157	CS(=O)(=O)c1ccc(O)c(N)c1
136 to 138	COc1ccc(C(=O)CO)cc1Cl
184 to 186	O=C(O)Cc1c[nH]c2cccc(Br)c12
180 to 182	O=C(Cc1nc2ccccc2[nH]1)c1ccccc1
139 to 141	Cc1sc(=O)n(CC(=O)O)c1-c1ccc(F)cc1
226 to 228	COc1ccc(C(=O)O)cc1-c1ccccn1
71 to 73	CC(Cl)C(=O)Nc1ccccc1[N+](=O)[O-] (stereo not given)
198 to 200	O=[N+]([O-])c1cnc(O)c(Cl)c1
238 to 240	Cc1ccc(-c2nn(-c3ccccc3)cc2/C=C/C(=O)O)o1
142 to 144	O=C(CCl)Nc1nc(-c2ccc(F)cc2)cs1
203 to 205	CC(C)Oc1ccc(-c2nc(C(=O)O)cs2)cc1
274 to 276	O=C1c2ccccc2C(=O)N1Cc1ccnc2ccnn12
109 to 111	NC(=S)Cc1ccc(F)cc1
79 to 81	CC(=O)SC(C(=O)O)c1ccccc1 (stereo not given)
250 to 252	CS(=O)(=O)Nc1cc(C(=O)O)ccc1F
115 to 117	COc1cc(C(C[N+](=O)[O-])c2c[nH]c3ccccc23)ccc1O (stereo not given)
38 to 40	O=[N+]([O-])c1cccc(Sc2ccccc2)c1
243 to 245	O=C(O)c1ccc(I)c(Br)c1
219 to 221	Cc1nn(-c2ccc(F)cc2)c(C)c1C(=O)O
212 to 214	Nc1ccc(C(=O)Nc2cccnc2)cc1
76 to 78	CCc1ccc(C(=O)c2ccc([N+](=O)[O-])cc2)o1
299 to 301	O=C(O)c1ccc(=O)n(-c2ccc(F)cc2)c1
71 to 73	CCN(CC)C(=O)c1ccccc1N
190 to 192	CC1(c2ccc3ccccc3c2)NC(=O)NC1=O (stereo not given)
144 to 146	Cc1nn(-c2ccccc2)c(C(F)(F)Cl)c1C(=O)O

melting point [°C]	Compound
304 to 306	O=C(O)c1cccc(NC(=O)c2cccnc2)c1
117 to 119	O=C(O)CCc1ccc(-c2ccccc2F)o1
155 to 157	Cc1ccc(CC(=O)NO)cc1
145 to 147	O=C(O)Cn1c(-c2ccccc2)cc2ccccc21
216 to 218	CCc1cc2c(C)cc(=O)oc2cc1O
118 to 120	Nc1ccc(S(=O)(=O)CC2CCOC2)cc1 (stereo not given)
113 to 115	O=C(CCl)NC(=O)OCc1ccccc1
99 to 101	OCc1cnc(-c2ccco2)o1
183 to 185	Cc1[nH]c(SCC(=O)O)nc1Cc1ccccc1
197 to 199	O=C(O)c1cccc(OCc2cn3ccccc3n2)c1
154 to 156	C=CCN1C(=O)c2ccc(C(=O)O)cc2C1=O
51 to 53	CC(OCc1ccccc1)C(=O)O (stereo not given)
85 to 87	CNC(=O)Cc1ccccc1N
166 to 168	CC(C)(C#N)NC(=O)c1ccccc1
199 to 201	Cn1cc([N+](=O)[O-])cc1C(=O)O
156 to 158	O=C(O)CS(=O)(=O)Cc1ccc(Br)cc1
73 to 75	CCOc1cc(C=O)ccc1OCc1cccnc1
36 to 37	O=C(CCc1ccccc1)c1ccccc1O
139 to 141	Cc1oc(C(=O)O)cc1COc1ccccc1
179 to 181	CCOc1ccc(C(N)=O)cn1
59 to 61	CN(C)c1ccc(CNC(=O)CCl)cc1
212 to 214	Cc1ccc(-c2nn(-c3ccc(F)cc3)cc2C(=O)O)cc1
259 to 261	CNS(=O)(=O)c1ccc(/C=C/C(=O)O)cc1
126 to 128	CN(CC(=O)O)C(=O)Nc1cccc2ccccc12
194 to 196	CC1Cc2cc(C(=O)O)ccc2N1S(C)(=O)=O (stereo not given)
160 to 162	O=C(O)CNC(=O)c1ccc(Br)cc1

The remaining lines, values behind:

Compound	melting point [°C]
CC(C)c1nnnn1CC(=O)O	179 to 181
O=C(O)c1cn(-c2ccccc2C(F)(F)F)nn1	129 to 131
CC(C)(C)OC(=O)N1CCC(O)(C(F)(F)F)C1 (stereo not given)	102 to 104
COCC(C)n1c(SCC(=O)O)nnc1-c1ccccc1 (stereo not given)	139 to 141
CS(=O)(=O)Nc1ccc(F)cc1C(=O)O	204 to 206
c1ccc(-c2cncc(-c3ccccc3)n2)cc1	86 to 88
Cc1cccc(-n2ncc(C(=O)O)n2)c1	131 to 133
CCn1nnnc1S	18 to 20
O=C(O)CCc1nc2cc(Br)ccc2s1	154 to 156
COc1ccc(Br)c(-c2nnc(CCC(=O)O)o2)c1	116 to 118
NC(=S)Nc1cccc2c1CCCC2	165 to 167
C=CCc1cc(OCC)ccc1O	135 to 137
CC(C)C(O)Cc1ccccc1Br (stereo not given)	73 to 75
COc1cc(OC)cc(-c2nnc(S)n2N)c1	178 to 180
Cc1nn2cnnc2[nH]c1=O	195 to 197
CC(C)(C)OC(=O)NCC(=O)NN	79 to 81
N#CCCn1cc(C(=O)O)c(-c2cccc(Br)c2)n1	154 to 156
O=C1CN(c2ccccc2)C(=O)N1	190 to 192
Cc1ccc(O)c(C(=O)Nc2nc(CC(=O)O)cs2)c1	271 to 273
O=C(O)c1ccc(Cl)c(N2CCCS2(=O)=O)c1	212 to 214
CCOc1ccccc1C=NO	64 to 66
O=C(NC1CCCCNC1=O)OCC(F)(F)F (stereo not given)	199 to 201
O=Cc1cccc2cn[nH]c12	121 to 123
O=C1c2ccccc2C(=O)N1CC1(CBr)CCCC1	68 to 70

Compound	melting point [°C]
O=C(CCl)N1CCN(C(=O)Nc2ccccc2)CC1	168 to 170
N#Cc1ccc(Oc2ccccc2C(F)(F)F)nc1	80 to 82
O=C(O)c1sccc1S(=O)(=O)N1CCCC1	128 to 130
CC(C)CC1CC(C(=O)O)CC(=O)N1 (stereo not given)	188 to 190
O=S1(=O)C=CC(N=C=S)C1 (stereo not given)	61 to 63
CC(N)c1ccc(-n2ccnc2)cc1 (stereo not given)	50 to 52
CCOC(=O)c1[nH]ncc1C=O	168 to 170
Cc1ccc(-n2cc(C)cn2)c(N)c1	49 to 51
Cn1cncc1C(N)=O	178 to 180
NC(=O)c1cc(N)ccc1F	137 to 139
CCc1ncc(C(=O)O)s1	151 to 153
Cc1ccc(O)c(C(=O)NCC(C)C)c1	51 to 53
NC(Cn1ccccc1=O)=NO	211 to 213
CCCS(=O)(=O)Nc1ccccc1C(C)NC (stereo not given)	58 to 60
O=C(O)c1ccc(N2CCCC2)c(F)c1	269 to 271
CCn1c(N)cc(=O)[nH]c1=O	125 to 127
CC1(C2CCCCC2)NC(=O)NC1=O (stereo not given)	113 to 115
Cc1c(C(=O)O)oc2c1C(=O)CC(C)(C)C2	199 to 201
Sc1nnc(CCc2ccccc2)o1	92 to 94
NC(=S)c1ccoc1	103 to 105
Nc1c(F)cccc1C(=O)O	182 to 186
CC(C)(C)OC(=O)C(C#N)c1nccnc1Cl (stereo not given)	62 to 64
Cc1ccc(-c2cc(N)nc(-c3ccccc3)c2)cc1	110 to 112
CC(C)CCn1cc(C(=O)O)nn1	187 to 189

Compound	melting point [°C]
CCOc1ccc(NC(=O)CCl)cc1S(=O)(=O)N1CCCCC1	129 to 131
O=C(O)CNC(=O)NCc1ccco1	159 to 161
CCOc1ccc(C2CCCN2)cc1 (stereo not given)	< 17
O=C(CCl)NCc1ccco1	81 to 83
Nc1ccccc1C(=O)NC1CC1	135 to 136
Cn1ncc(Cl)c(Cl)c1=O	87 to 89
O=C(CCl)NC1CCC(C(F)(F)F)CC1 (stereo not given)	65 to 67
ClCc1nnnn1CC1CC1	30 to 32
Cc1[nH]c2ccc(F)cc2c1CC(=O)O	180 to 182
OC(CNCc1ccccc1)c1ccsc1 (stereo not given)	78 to 80
CC1CCCC(C)N1C(=O)c1cc(Cl)ccc1N (stereo not given)	169 to 171
N#CCCN1C(=O)c2ccccc2C1=O	153 to 155
O=C(O)C1CCN(C(=O)C2CC2)CC1	211 to 213
CN(C(=O)C1CC1)c1ccccc1C(=O)O	166 to 168
O=C1Nc2ccc(S(=O)(=O)Cl)cc2C1=O	184 to 186
O=S(=O)(Cl)c1cc(Cl)c(Br)s1	61 to 63
CC(C)(C)c1cnc(S)o1	131 to 133
O=C(O)C1CCN1Cc1ccccc1 (stereo not given)	176 to 178
O=C(CBr)CS(=O)(=O)c1ccccc1	96 to 98
CNS(=O)(=O)c1cc(Br)ccc1C	105 to 107
Nc1cccc(-c2ncco2)c1	61 to 63
CCOC(=O)c1cnc(N2CCNCC2)s1	73 to 75
CCNC(=O)NC(=O)C(C)Cl (stereo not given)	126 to 128
CNc1ncc(C(=O)OC)s1	115 to 117

Compound	melting point [°C]
Cn1c(-c2ccccc2)cc2cc[nH]c(=O)c21	201 to 203
O=C(O)COc1ccc(Cl)cc1Br	123 to 125
COCCOc1ccc(C=O)cc1OC	67 to 69
Cn1cc(S(N)(=O)=O)cc1C(=O)O	202 to 204
CC(NS(C)(=O)=O)C(=O)NN (stereo not given)	117 to 119
Nc1cnc(Br)cc1C(=O)O	256 to 258
CCc1nnnn1-c1ccccc1N	107 to 109
CCOC(=O)c1c(C)[nH]c(C(C)=O)c1C	115 to 117
Oc1ccc(Nc2nnns2)cc1	159 to 161
O=C(O)CCc1nc(-c2ccccn2)no1	206 to 208
O=C(O)C1CCCN(c2ncccc2C(F)(F)F)C1 (stereo not given)	86 to 88
Cc1cc(C(=O)O)sc1C=O	204 to 206
O=C(Nc1ccc(F)cc1)NC1CCNCC1	183 to 185
O=C(O)CCN1C(=O)NC2(CCCC2)C1=O	167 to 169
O=C(O)c1c[nH]c2cc(Cl)ccc12	219 to 221
CCOC(=O)c1c(N)c(C#N)cn1C	159 to 161
O=C(O)CSc1nnc(-c2ccc(Cl)cc2Cl)[nH]1	161 to 163
COC1(C(=O)O)CCN(C(=O)OC(C)(C)C)CC1	96 to 98
O=C(Nc1cccc(O)c1)C1CC1	184 to 186
CC(=O)N1CCC(C(=O)O)C1 (stereo not given)	145 to 147
CS(=O)(=O)c1ccc(F)c(C(=O)O)c1F	175 to 177
